Our source for the IC50 values is patent publication US20230167127A1, “COMPOUNDS AND THEIR USE IN THE TREATMENT OF BACTERIAL INFECTION” (Hoffmann-La Roche Inc., priority 2020, published 2023).

A value given as a limit tells only on which side of the number the result lay.

One assay concerns Escherichia coli ATCC 25922. In words: 50% growth inhibitory concentration (IC50) determination, Iso-Sensitest broth dilution. Format: cell-based. The note with it: Escherichia coli, ATCC25922, 16 h, strain Escherichia coli ATCC 25922; 10-point broth dilution, optical density at 600 nm over 16 h; read-out: Escherichia coli growth inhibition IC50. Summed up: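 10-point twofold Iso-Sensitest broth dilution (e.g. 50 to 0.097 μM final) with DMSO stocks, incubated at 35±2° C. Growth followed by OD 600 nm every 20 min over 16 h; IC50 derived from growth inhibition during logarithmic phase.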
In general terms: Broth dilution looks for growth in wells or tubes with falling amounts of substance.
As to `Cc1nc(OCC2(N)CC2)c(C#N)c2c1CC(CNCCC1CN(c3ccc4c(n3)NC(=O)CO4)C(=O)O1)C2` (stereo not drawn) [Example 214, 3-[(1-aminocyclopropyl)methoxy]-1-methyl-6-[[2-[2-oxo-3-(3-oxo-4H-pyrido[3,2-b][1,4]oxazin-6-yl)-1,3-oxazolidin-5-yl]ethylamino]methyl]-6,7-dihydro-5H-cyclopenta[c]pyridine-4-carbonitrile], the concentration for half-maximal inhibition (IC50) was below 97.7 nM. Same read-out and setting: next, `Cc1ncc(F)c2c1CC(CN1CCC3(CN(c4ccc5c(n4)NC(=O)CO5)C(=O)O3)C(CO)C1)C2` (stereo not drawn) [Example 277, 6-[8-[(4-fluoro-1-methyl-6,7-dihydro-5H-cyclopenta[c]pyridin-6-yl)methyl]-6-(hydroxymethyl)-2-oxo-1-oxa-3,8-diazaspiro[4.5]decan-3-yl]-4H-pyrido[3,2-b][1,4]oxazin-3-one]: 628 nM; `CC(N)COc1cc(F)c2c(c1)CC(CNCCC1CN(c3ccc4c(n3)NC(=O)CO4)C(=O)O1)C2` (stereo not drawn) [Example 154, 6-[5-[2-[[6-(2-aminopropoxy)-4-fluoro-2,3-dihydro-1H-inden-2-yl]methylamino]ethyl]-2-oxo-1,3-oxazolidin-3-yl]-4H-pyrido[3,2-b][1,4]oxazin-3-one]: below 97.7 nM; `NC1c2ccnc(Cl)c2CC1CNCCC1CN(c2ccc3c(n2)NC(=O)CO3)C(=O)O1` (racemic) [Example 146, 6-[2-oxo-5-[2-[[rac-5,6-cis-5-amino-1-chloro-6,7-dihydro-5H-cyclopenta[c]pyridin-6-yl]methylamino]ethyl]-1,3-oxazolidin-3-yl]-4H-pyrido[3,2-b][1,4]oxazin-3-one; formic acid]: 1010 nM. The same measure, in the same setting: the same measure for `Cc1nnc(C)c2c1CC(CNCCC1CN(c3ccc4c(n3)NC(=O)CO4)C(=O)O1)C2` (stereo not drawn) [Example 284, 6-[5-[2-[(1,4-dimethyl-6,7-dihydro-5H-cyclopenta[d]pyridazin-6-yl)methylamino]ethyl]-2-oxo-1,3-oxazolidin-3-yl]-4H-pyrido[3,2-b][1,4]oxazin-3-one]: 1270 nM. For the compound `Cc1c(OCC2(N)CC2)nc(C#N)c2c1CC(CNCCC1CN(c3ccc4c(n3)NC(=O)CO4)C(=O)O1)C2` (stereo not drawn) [Example 213, 3-[(1-aminocyclopropyl)methoxy]-4-methyl-6-[[2-[2-oxo-3-(3-oxo-4H-pyrido[3,2-b][1,4]oxazin-6-yl)-1,3-oxazolidin-5-yl]ethylamino]methyl]-6,7-dihydro-5H-cyclopenta[c]pyridine-1-carbonitrile], the IC50 is below 97.7 nM. Turning to `N#Cc1cccc2c1CC(CNCCC1CN(c3ccc4c(c3)NC(=O)CO4)C(=O)O1)C2` (stereo not drawn) [Example 18, 2-[[2-[2-oxo-3-(3-oxo-4H-1,4-benzoxazin-6-yl)-1,3-oxazolidin-5-yl]ethylamino]methyl]-2,3-dihydro-1H-indene-4-carbonitrile; formic acid], the IC50 is below 97.7 nM. Still for that read-out and setting: the same measure for `Cc1ncc(Cl)c2c1CC(CNCCC1CN(c3ccc4c(n3)NC(=O)CO4)C(=O)O1)C2` (stereo not drawn) [Example 55, 6-[5-[2-[(4-chloro-1-methyl-6,7-dihydro-5H-cyclopenta[c]pyridin-6-yl)methylamino]ethyl]-2-oxo-1,3-oxazolidin-3-yl]-4H-pyrido[3,2-b][1,4]oxazin-3-one; formic acid]: below 97.7 nM; for `Cc1ncc(F)c2c1CC(CNC[C@@H](O)[C@H]1CN(c3cnc4c(n3)NC(=O)CO4)C(=O)O1)C2` (stereo partly drawn) [Example 360, 6-[(5R)-5-[(1R)-2-[(4-Fluoro-1-methyl-6,7-dihydro-5H-cyclopenta[c]pyridin-6-yl)methylamino]-1-hydroxyethyl]-2-oxo-1,3-oxazolidin-3-yl]-4H-pyrazino[2,3-b][1,4]oxazin-3-one; formic acid]: 319 nM; for `CN(CCOc1cc(F)c2c(c1)CC(CNCCC1CN(c3cnc4c(n3)NC(=O)CO4)C(=O)O1)C2)S(C)(=O)=O` (stereo not drawn) [Example 325, N-[2-[[7-fluoro-2-[[2-[2-oxo-3-(3-oxo-4H-pyrazino[2,3-b][1,4]oxazin-6-yl)-1,3-oxazolidin-5-yl]ethylamino]methyl]-2,3-dihydro-1H-inden-5-yl]oxy]ethyl]-N-methylmethanesulfonamide]: 281 nM. Same read-out and setting: next, `N#Cc1cccc2c1CC(CN1CCC3(CN(c4ccc5c(n4)NC(=O)CO5)C(=O)O3)C(CN)C1)C2` (racemic) [Example 249, 2-[[rac-5,6-trans-6-(Aminomethyl)-2-oxo-3-(3-oxo-4H-pyrido[3,2-b][1,4]oxazin-6-yl)-1-oxa-3,8-diazaspiro[4.5]decan-8-yl]methyl]-2,3-dihydro-1H-indene-4-carbonitrile; formic acid]: 108 nM; `O=C1COc2ccc(N3CC(CCCNC4Cc5cccc(Cl)c5C4)OC3=O)nc2N1` (stereo not drawn) [Example 4, 6-[5-[3-[(4-chloro-2,3-dihydro-1H-inden-2-yl)amino]propyl]-2-oxo-1,3-oxazolidin-3-yl]-4H-pyrido[3,2-b][1,4]oxazin-3-one]: below 97.7 nM. Same read-out and setting: next, `CNC(=O)COc1cc(F)c2c(c1)CC(CNCCC1CN(c3ccc4c(n3)NC(=O)CO4)C(=O)O1)C2` (stereo not drawn) [Example 69, 2-[[7-fluoro-2-[[2-[2-oxo-3-(3-oxo-4H-pyrido[3,2-b][1,4]oxazin-6-yl)-1,3-oxazolidin-5-yl]ethylamino]methyl]-2,3-dihydro-1H-inden-5-yl]oxy]-N-methylacetamide; formic acid]: 123 nM; `N#Cc1cccc2c1CC(CNCCC1(N)CC(=O)N(c3ccc4c(n3)NC(=O)CO4)C1)C2` (stereo not drawn) [Example 138, 2-[[2-[3-amino-5-oxo-1-(3-oxo-4H-pyrido[3,2-b][1,4]oxazin-6-yl)pyrrolidin-3-yl]ethylamino]methyl]-2,3-dihydro-1H-indene-4-carbonitrile]: 359 nM. For `CC(=O)NCCOc1ccc2c(c1C#N)CC(CNCCC1CN(c3ccc4c(n3)NC(=O)CO4)C(=O)O1)C2` (stereo not drawn) [Example 56, N-[2-[[4-cyano-2-[[2-[2-oxo-3-(3-oxo-4H-pyrido[3,2-b][1,4]oxazin-6-yl)-1,3-oxazolidin-5-yl]ethylamino]methyl]-2,3-dihydro-1H-inden-5-yl]oxy]ethyl]acetamide], the IC50 is 941 nM.

With `CC(N)COc1cc2c(c(Cl)n1)CC(CNCCC1CN(c3ccc4c(n3)NC(=O)CO4)C(=O)O1)C2` (stereo not drawn) [Example 144, 6-[5-[2-[[3-(2-aminopropoxy)-1-chloro-6,7-dihydro-5H-cyclopenta[c]pyridin-6-yl]methylamino]ethyl]-2-oxo-1,3-oxazolidin-3-yl]-4H-pyrido[3,2-b][1,4]oxazin-3-one; formic acid], the IC50 came out at 131 nM.

As for `Cc1ncc(F)c2c1CC(NC(C)CCC1CN(c3cnc4c(n3)NC(=O)CO4)C(=O)O1)C2` (single isomer, unassigned; isomer a) [Example 333, 6-[5-[3-[(4-fluoro-1-methy1-6,7-dihydro-5H-cyclopenta[c]pyridin-6-yl)amino]butyl]-2-oxo-1,3-oxazolidin-3-yl]-4H-pyrazino[2,3-b][1,4]oxazin-3-one, Isomer A], the IC50 came out at 265 nM.

Consider `N#Cc1c(OCCN)ccc2c1CC(CNCCC1CN(c3ccc4c(n3)NC(=O)CO4)C(=O)O1)C2` (stereo not drawn) [Example 128, 5-(2-aminoethoxy)-2-[[2-[2-oxo-3-(3-oxo-4H-pyrido[3,2-b][1,4]oxazin-6-yl)-1,3-oxazolidin-5-yl]ethylamino]methyl]-2,3-dihydro-1H-indene-4-carbonitrile; formic acid], for which the IC50 amounted to 98.1 nM. Same read-out and setting: the same measure for `Cc1nc(Cl)c2c(c1F)CC(CNCCC1CN(c3cnc4c(n3)NC(=O)CO4)C(=O)O1)C2` (stereo not drawn) [Example 431, 6-[5-[2-[(1-chloro-4-fluoro-3-methyl-6,7-dihydro-5H-cyclopenta[o]pyridin-6-yl)methylamino]ethyl]-2-oxo-1,3-oxazolidin-3-yl]-4H-pyrazino[2,3-b][1,4]oxazin-3-one; formic acid]: below 97.7 nM; for `N[C@@H]1c2cccc(Cl)c2C[C@H]1CNCC[C@H]1CN(c2cnc3c(n2)NC(=O)CO3)C(=O)O1` [Example 402, 6-[(5S)-5-[2-[[(1S,2S)-1-amino-4-chloro-2,3-dihydro-1H-inden-2-yl]methylamino]ethyl]-2-oxo-1,3-oxazolidin-3-yl]-4H-pyrazino[2,3-b][1,4]oxazin-3-one]: below 97.7 nM; for `N#Cc1cc(OCC(N)=O)cc2c1CC(CNCCC1CN(c3cnc4c(n3)NC(=O)CO4)C(=O)O1)C2` (stereo not drawn) [Example 414, 2-[[7-cyano-2-[[2-[2-oxo-3-(3-oxo-4H-pyrazino[2,3-b][1,4]oxazin-6-yl)-1,3-oxazolidin-5-yl]ethylamino]methyl]-2,3-dihydro-1H-inden-5-yl]oxy]acetamide]: 127 nM.

Staying with this assay, now noted: strain Escherichia coli ATCC 25922; 10-point broth dilution, optical density at 600 nm over 16 h; read-out: Escherichia coli growth inhibition IC50.
On to `Cc1ncc(F)c2c1CC(NC1CC(C3CN(c4cnc5c(n4)NC(=O)CO5)C(=O)O3)C1)C2` (single isomer, unassigned; isomer b) [Example 329, 6-[5-[3-[(4-fluoro-1-methyl-6,7-dihydro-5H-cyclopenta[c]pyridin-6-yl)amino]cyclobutyl]-2-oxo-1,3-oxazolidin-3-yl]-4H-pyrazino[2,3-b][1,4]oxazin-3-one, Isomer B], for which the IC50 turned out to be 453 nM.

Consider `Cc1ncc(F)c2c1CC(CN1CCC3(CN(c4ccc5c(n4)NC(=O)CO5)C(=O)O3)C(CN)C1)C2` (racemic) [Example 251, 6-[rac-5,6-cis-6-(Aminomethyl)-8-[(4-fluoro-1-methyl-6,7-dihydro-5H-cyclopenta[c]pyridin-6-yl)methyl]-2-oxo-1-oxa-3,8-diazaspiro[4.5]decan-3-yl]-4H-pyrido[3,2-b][1,4]oxazin-3-one], for which the IC50 turned out to be 679 nM.

Take `Cc1ncc(F)c2c1CC(NC(C)CCC1CN(c3cnc4c(n3)NC(=O)CO4)C(=O)O1)C2` (single isomer, unassigned; isomer b) [Example 334, 6-[5-[3-[(4-fluoro-1-methyl-6,7-dihydro-5H-cyclopenta[c]pyridin-6-yl)amino]butyl]-2-oxo-1,3-oxazolidin-3-yl-4H-pyrazino[2,3-b][1,4]oxazin-3-one, Isomer B]: the IC50 was 321 nM.

For orientation: IC50 means the midpoint of a concentration-inhibition curve.
